Measurements published in patent publication US20240327388A1, “QUINOLINAMINE COMPOUND, PREPARATION METHOD THEREFOR AND APPLICATION THEREOF IN PHARMACEUTICALS” (JIANGSU HENGRUI PHARMACEUTICALS CO., LTD., priority 2021, published 2024).

Test system: miR-124
Test: Up-regulation of miR-124 in CD3/CD28 antibody-activated T cells (SYBR green quantitative PCR)
Assay type: cell-based
Conditions: T-cell, 72 h; activated human T cells, 1 μM compound, 3 days, relative to DMSO, U6 internal reference
Procedure: The effect of the compound on miR-124 expression levels was detected in CD3/CD28 antibody-activated T cells. After the activated T cells were treated with the compound, the total cellular RNA was extracted, the cDNA obtained from reverse transcription was used as a template, and quantification was performed by an SYBR green fluorescence quantitative PCR method using a specific miR-124 primer.
Isolation of T cells: Purchased human peripheral blood mononuclear cells (PBMCs) were counted, centrifuged, and washed once with a separation buffer (PBS, pH 7.4, containing 0.5% BSA and 2 mM EDTA), and the supernatant was discarded. The components were added in an amount of 40 μL of a buffer and 10 μL of pan T Cell Biotin-Antibody Cocktail per 1×10^7 cells, and the pellet was resuspended. The resulting suspension was mixed and incubated in a refrigerator at 4° C. for 5 min. After the incubation was completed, the components were added in an amount of 30 μL of a buffer and 20 μL of Pan T Cell MicroBeads Cocktail per 1×10^7 cells, and the resulting suspension was mixed and incubated in a refrigerator at 4° C. for 10 min. The separation column (LS column) was rinsed with 3 mL of a cell separation buffer in advance, loaded with the above cell suspension, and then repeatedly washed 3 times with 1 mL of the cell separation buffer. The effluent cell fluid was collected in a 15 mL centrifuge tube, thus giving the enriched T cells. The cells were counted and added at a density of 1×10^6 cells/mL to an RPMI1640 medium (complete medium) containing 10% FBS and 40) U/mL IL-2, and the resulting mixture was kept on ice for later use.
Activation of T cells: The corresponding Dynabead Human T-Activator CD3/CD28 for T Cell Expansion and Activation were added to a 1.5 mL centrifuge tube in an amount of 25 μL of the activated magnetic beads per 1×10^6 cells, which should be shaken on a shaker for about 30 s before aspiration. In the centrifuge tube, at a volume ratio of greater than 1:1, the activated magnetic beads were washed 3 times with a medium, and all the washing liquid was removed after the last washing. A complete medium with a volume equal to the starting volume was added to resuspend the activated magnetic beads. The washed activated magnetic beads were added to the cell resuspension, and the resulting mixture was well mixed. The cells were added to a six-well plate at 3 mL/well and incubated in a cell incubator at 37° C. with 5% CO2 for 2 days.
Compound treatment: A 20 mM compound stock solution was diluted to 200 μM with DMSO, and then diluted 4-fold to 50 μM (50)×) with a complete medium. The resulting mixture was well mixed for later use. 4-fold diluted DMSO (25% DMSO) was added to negative control wells. T cells were activated for two days and pipetted uniformly. The 1.5 mL centrifuge tube was mounted on a magnetic rack, and the activated magnetic beads were removed. The cell suspension was collected, and the cells were counted and then centrifuged at 300×g for 10 min to discard the supernatant. The cells were then resuspended to 1.02×10^6 cells/mL, and 980 μL of the cell suspension and 20 μL of the 50× compound were added to each 24-well plate, with the final concentration of the compound being 1 μM. The cells were placed in a cell incubator at 37° C. with 5% CO2 for another 3 days.
RNA extraction: T cells were collected by centrifugation at 1500 rpm for 3 min, washed once with PBS, and centrifuged again to discard the supernatant. The total cellular RNA was extracted using a microRNA extraction kit according to the package insert. 700 μL of a Trizol cell lysis buffer was added to the cell pellet, and the resulting mixture was pipetted uniformly and left at room temperature for 5 min. 140 μL of chloroform was added, and the resulting mixture was well mixed with shaking and left to stand at room temperature for 3 min. The chloroform-cell lysis buffer mixture was centrifuged at 12000×g and 4° C. for 15 min. […]

SMILES: Clc1cccc2ccc(Nc3ccc4c(c3)CCO4)nc12 [Compound 3, 8-Chloro-N-(2,3-dihydrobenzofuran-5-yl)quinolin-2-amine]
- fold induction at 1 µM: 5.2

SMILES: Clc1cccc2ccc(Nc3ccc4c(c3)CCC4)nc12 [Compound 4, 8-Chloro-N-(2,3-dihydro-1H-inden-5-yl)quinolin-2-amine]
- fold induction at 1 µM: 5.4

SMILES: CC(=O)N1CCc2cc(Nc3ccc4cccc(Cl)c4n3)ccc21 [Compound 5, 1-(5-((8-Chloroquinolin-2-yl)amino)indolin-1-yl)ethan-1-one]
- fold induction at 1 µM: 1.4

SMILES: Clc1cccc2ccc(Nc3ccc4c(c3)OCCO4)nc12 [Compound 6, 8-Chloro-N-(2,3-dihydrobenzo[b][1,4]dioxin-6-yl)quinolin-2-amine]
- fold induction at 1 µM: 2.7

SMILES: Clc1cccc2ccc(Nc3ccc4c(c3)CCCC4)nc12 [Compound 7, 8-Chloro-N-(5,6,7,8-tetrahydronaphthalen-2-yl)quinolin-2-amine]
- fold induction at 1 µM: 5.2

SMILES: FC1(F)Oc2ccc(Nc3ccc4cccc(Cl)c4n3)cc2OC1(F)F [Compound 8, 8-Chloro-N-(2,2,3,3-tetrafluoro-2,3-dihydrobenzo[b][1,4]dioxin-6-yl)quinolin-2-amine]
- fold induction at 1 µM: 5.4

SMILES: Clc1cccc2ccc(Nc3cnc4c(c3)OCO4)nc12 [Compound 9, N-(8-Chloroquinolin-2-yl)-[1,3]dioxolo[4,5-b]pyridin-6-amine]
- fold induction at 1 µM: 2.4

SMILES: Clc1cccc2ccc(Nc3ccc4c(c3)OCO4)nc12 [Compound 10, N-(Benzo[d][1,3]dioxol-5-yl)-8-chloroquinolin-2-amine]
- fold induction at 1 µM: 2.1

SMILES: [2H]C1([2H])Oc2ccc(Nc3ccc4cccc(Cl)c4n3)cc2O1 [Compound 11, N-(Benzo[d][1,3]dioxol-5-yl-2,2-d2)-8-chloroquinolin-2-amine]
- fold induction at 1 µM: 2.4

SMILES: CC1(C)Oc2ccc(Nc3ccc4cccc(Cl)c4n3)cc2O1 [Compound 12, 8-Chloro-N-(2,2-dimethylbenzo[d][1,3]dioxol-5-yl)quinolin-2-amine]
- fold induction at 1 µM: 1.8

SMILES: CC1(C)Cc2cc(Nc3ccc4cccc(Cl)c4n3)ccc2O1 [Compound 13, 8-Chloro-N-(2,2-dimethyl-2,3-dihydrobenzofuran-5-yl)quinolin-2-amine]
- fold induction at 1 µM: 2.8

SMILES: FC1(F)Oc2ccc(Nc3ccc4c5c(cc(Cl)c4n3)CCC5)cc2O1 [Compound 14, 5-Chloro-N-(2,2-difluorobenzo[d][1,3]dioxol-5-yl)-8,9-dihydro-7H-cyclopenta[f]quinolin-3-amine]
- fold induction at 1 µM: 1.5

SMILES: Cc1ccc2ccc(Nc3ccc4c(c3)OC(F)(F)O4)nc2c1Cl [Compound 15, 8-Chloro-N-(2,2-difluorobenzo[d][1,3]dioxol-5-yl)-7-methylquinolin-2-amine]
- fold induction at 1 µM: 5.7

SMILES: COc1ccc2ccc(Nc3ccc4c(c3)OC(F)(F)O4)nc2c1Cl [Compound 16, 8-Chloro-N-(2,2-difluorobenzo[d][1,3]dioxol-5-yl)-7-methoxyquinolin-2-amine]
- fold induction at 1 µM: 3.9

SMILES: FC1(F)Oc2ccc(Nc3ccc4ccc(Cl)c(Cl)c4n3)cc2O1 [Compound 17, 7,8-Dichloro-N-(2,2-difluorobenzo[d][1,3]dioxol-5-yl)quinolin-2-amine]
- fold induction at 1 µM: 5.9

SMILES: Cc1cc(Cl)c2nc(Nc3ccc4c(c3)OC(F)(F)O4)ccc2c1 [Compound 18, 8-Chloro-N-(2,2-difluorobenzo[d][1,3]dioxol-5-yl)-6-methylquinolin-2-amine]
- fold induction at 1 µM: 2.7

SMILES: FC1(F)Oc2ccc(Nc3ccc4cc(Cl)cc(Cl)c4n3)cc2O1 [Compound 20, 6,8-Dichloro-N-(2,2-difluorobenzo[d][1,3]dioxol-5-yl)quinolin-2-amine]
- fold induction at 1 µM: 5

SMILES: O=C(O)[C@H]1O[C@@H](N(c2ccc3c(c2)OCO3)c2ccc3cccc(Cl)c3n2)[C@H](O)[C@@H](O)[C@@H]1O [Compound 21, (2S,3S,4S,5R,6R)-6-(Benzo[d][1,3]dioxol-5-yl(8-chloroquinolin-2-yl)amino)-3,4,5-trihydroxytetrahydro-2H-pyran-2-carboxylic acid]
- fold induction at 1 µM: 1.9

SMILES: O=C(O)[C@H]1O[C@@H](N(c2ccc3c(c2)OCCO3)c2ccc3cccc(Cl)c3n2)[C@H](O)[C@@H](O)[C@@H]1O [Compound 22, (2S,3S,4S,5R,6R)-6-((8-Chloroquinolin-2-yl)(2,3-dihydrobenzo[b][1,4]dioxin-6-yl)amino)-3,4,5-trihydroxytetrahydro-2H-pyran-2-carboxylic acid]
- fold induction at 1 µM: 1.7

SMILES: Cc1ccc(Cl)c2nc(Nc3ccc4c(c3)OC(F)(F)O4)ccc12 [Compound 23, 8-Chloro-N-(2,2-difluorobenzo[d][1,3]dioxol-5-yl)-5-methylquinolin-2-amine]
- fold induction at 1 µM: 2.3

SMILES: COc1ccc(Cl)c2nc(Nc3ccc4c(c3)OC(F)(F)O4)ccc12 [Compound 24, 8-Chloro-N-(2,2-difluorobenzo[d][1,3]dioxol-5-yl)-5-methoxyquinolin-2-amine]
- fold induction at 1 µM: 3

SMILES: FC1(F)Oc2ccc(Nc3ccc4c(Cl)ccc(Cl)c4n3)cc2O1 [Compound 25, 5,8-Dichloro-N-(2,2-difluorobenzo[d][1,3]dioxol-5-yl)quinolin-2-amine]
- fold induction at 1 µM: 6.7

SMILES: N#Cc1cc(Cl)c2nc(Nc3ccc4c(c3)OC(F)(F)O4)ccc2c1 [Compound 26, 8-Chloro-2-((2,2-difluorobenzo[d][1,3]dioxol-5-yl)amino)quinoline-6-carbonitrile]
- fold induction at 1 µM: 2.4
